Data published in PubChem BioAssay (NCI).
“And” between values parts separate entries of the source, which are not always exact repeats. Identical values can stand only once.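 Five concentrations, 48 hours, 96-well plates. The concentration for 50% growth inhibition is given as GI50. TGI: concentration producing complete growth inhibition.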

Legend:
Test in all cases: inhibition of tumour cell growth, NCI panel, 48 h
[1] = system: OVCAR-3 ovarian
[2] = system: TK-10 renal
[3] = system: HCT-15 colon
[4] = system: SK-OV-3 ovarian
[5] = system: SF-268 CNS
[6] = system: NCI-H226 lung
[7] = system: MALME-3M melanoma
[8] = system: SF-539 CNS
[9] = system: CAKI-1 renal
[10] = system: 786-0 renal

Row | Structure (SMILES) | GI50 [1] | TGI [1] | GI50 [2] | TGI [2] | GI50 [3] | TGI [3] | GI50 [4] | TGI [4] | GI50 [5] | TGI [5] | GI50 [6] | TGI [6] | GI50 [7] | TGI [7] | GI50 [8] | TGI [8] | GI50 [9] | TGI [9] | GI50 [10] | TGI [10]
1 | C[C@@]12CCC(=O)c3coc(c31)C(=O)c1cc3c(cc12)C(=O)C=CC3=O | > 1 µM | > 1 µM and 32.7 µM | > 1 µM | > 61 µM | > 1 µM | > 1 µM and 32.7 µM | > 1 µM | > 100 µM | > 1 µM | > 1 µM and 38 µM | > 1 µM | > 1 µM and 86 µM | > 1 µM | > 1 µM and 31.3 µM | < 1 µM | > 1 µM and 31.7 µM | > 1 µM | > 1 µM and 38.4 µM | > 1 µM | > 1 µM and 31 µM
2 | O=C1C(Nc2ccc(Cl)cc2)=C(I)C(=O)c2ncccc21 | 0.247 µM | 1.03 µM | 1.59 µM | 2.94 µM | 0.373 µM | 1.82 µM | 4.28 µM | 18 µM | 1.37 µM | 3.23 µM | 1.52 µM | 3.03 µM | 0.875 µM | 2.14 µM | 1.63 µM | 3 µM | 0.327 µM | 1.54 µM | 0.91 µM | 2.25 µM
3 | O=S(=O)(/C=C/c1ccc(F)cc1)Cc1ccc(CS(=O)(=O)/C=C/c2ccc(F)cc2)cc1 | – | > 100 µM | – | > 100 µM | – | > 100 µM | – | > 100 µM | – | > 100 µM | – | > 100 µM | – | > 100 µM | – | > 100 µM | – | > 100 µM | – | > 100 µM
4 | C#CC#CC#CC#CC#CC#CC#CC#CCC1OCC(COC(=O)O[C@@H](C(=O)O[C@H]2C[C@@]3(O)[C@@H](OC(=O)c4ccccc4)[C@@H]4[C@]5(OC(C)=O)CO[C@@H]5C[C@H](O)[C@@]4(C)C(=O)[C@H](OC(C)=O)C(=C2C)C3(C)C)[C@@H](NC(=O)c2ccccc2)c2ccccc2)O1 (some centres undefined) | 0.0971 µM | – | > 16.3 µM | > 33.3 µM | > 9.51 µM | > 33.3 µM | 0.51 µM | > 33.3 µM | 0.379 µM | > 33.3 µM | 2.22 µM | > 33.3 µM | 0.28 µM | > 33.3 µM | 0.156 µM | 1.97 µM | 0.446 µM | > 33.3 µM | 2.15 µM | > 33.3 µM
5 | Nc1ncnc2c1N=C(c1ccc3c(c1)OCO3)CC(c1ccc([N+](=O)[O-])cc1)N2 (centres undefined) | 88.3 µM | > 100 µM | 80.9 µM | > 100 µM | 9.55 µM | > 100 µM | > 100 µM | > 100 µM | 42 µM | > 100 µM | > 100 µM | > 100 µM | 61.1 µM | > 100 µM | > 100 µM | > 100 µM | 25.5 µM | > 100 µM | 79.1 µM | > 100 µM
6 | COc1cccc(N2C(=O)C3c4[nH]c5ccccc5c4C4CCCC4C3C2=O)c1 (centres undefined) | – | > 10 µM | – | > 10 µM | – | > 10 µM | – | > 10 µM | – | > 10 µM | – | 7.59 µM | – | 8.22 µM | – | > 10 µM | – | > 10 µM | – | 4.41 µM
7 | O=c1cnn(C2OC(CO)C(O)C2O)c(=S)[nH]1 (centres undefined) | – | > 100 µM | – | > 100 µM | – | > 100 µM | – | > 100 µM | – | > 100 µM | – | > 100 µM | – | > 100 µM | – | > 100 µM | – | > 100 µM | – | > 100 µM
8 | COC(C(=O)NN)c1ccccc1 (centres undefined) | – | > 100 µM | – | > 100 µM | – | > 100 µM | – | > 100 µM | – | > 100 µM | – | > 100 µM | – | > 100 µM | – | > 100 µM | – | > 100 µM | – | > 100 µM
9 | NC(=O)CN(CC(N)=O)C(N)=O | – | > 100 µM | – | > 100 µM | – | > 100 µM | – | > 100 µM | – | > 100 µM | – | > 100 µM | – | > 100 µM | – | > 100 µM | – | > 100 µM | – | > 100 µM
10 | COC(=O)C1(Cc2ccc3c(c2)CCC3)Cc2ccccc2C1O (centres undefined) | – | 36.8 µM | – | 53.1 µM | – | 50.7 µM | – | 44.2 µM | – | 41.6 µM | – | 36.6 µM | – | 37.6 µM | – | 33.1 µM | – | 52.3 µM | – | 32.4 µM
11 | O=C(c1ccc(Cl)cc1Cl)C1[C@H]2C(=O)N(c3ccc(Cc4ccc(N5C(=O)[C@@H]6ON(c7ccccc7)C(C(=O)c7ccc(Cl)cc7Cl)[C@@H]6C5=O)cc4)cc3)C(=O)[C@H]2ON1c1ccccc1 (some centres undefined) | – | > 50 µM | – | > 50 µM | – | > 50 µM | – | > 50 µM | – | > 50 µM | – | > 50 µM | – | > 50 µM | – | > 50 µM | – | > 50 µM | – | > 50 µM
12 | Cc1[nH]c2ccccc2c1CCCO | > 100 µM | > 100 µM | > 100 µM | > 100 µM | > 100 µM | > 100 µM | > 100 µM | > 100 µM | > 100 µM | > 100 µM | > 100 µM | > 100 µM | > 100 µM | > 100 µM | > 100 µM | > 100 µM | > 100 µM | > 100 µM | > 100 µM | > 100 µM
13 | C[C@H]1CC[C@@]2(NC1)O[C@H]1C[C@H]3[C@@H]4CC[C@H]5C[C@@H](O)CC[C@]5(C)[C@H]4CC[C@]3(C)[C@H]1[C@@H]2C | 9.61 µM | 22.2 µM and > 100 µM | 11.1 µM | 25.3 µM and > 100 µM | 20.9 µM | 50 µM and > 100 µM | 22.7 µM | 50 µM and > 100 µM | 14 µM | 50 µM and > 100 µM | 13.8 µM | 35.8 µM and > 100 µM | 11.2 µM | 31.5 µM | 13.8 µM | 32.2 µM and > 100 µM | 12.9 µM | 34.5 µM and > 100 µM | 9.23 µM | 18.7 µM and > 100 µM
14 | C=CCN=C(N/N=C/c1ccc([N+](=O)[O-])o1)NS(=O)(=O)c1cc(C(=O)Nc2ccc(Cl)cc2)c(Cl)cc1SC | 1.57 µM | 14.1 µM | > 90.8 µM | > 100 µM | 2.97 µM | 13.5 µM | > 100 µM | > 100 µM | 2.85 µM | > 100 µM | 13.5 µM | > 100 µM | 5.08 µM | 63.4 µM | 5.92 µM | > 100 µM | 8.55 µM | > 100 µM | 6.94 µM | > 100 µM
15 | O=C(/C=C/Sc1cc(C(F)(F)F)cc(C(F)(F)F)c1)c1ccc(Cl)cc1 | 1.48 µM | 4.19 µM | 22.3 µM | 37.8 µM | 3.04 µM | 11.6 µM | 15.1 µM | 31.3 µM | 14.4 µM | 29.6 µM | 2.49 µM | 7.32 µM | 9.13 µM | 23.4 µM | 14.4 µM | 30.9 µM | 3.57 µM | 9.43 µM | 2.66 µM | 9.84 µM
